Assays:
[1] = test system: Pieris brassicae; assay: Antifeedant activity against fasted third-instar larvae of Pieris brassicae infested in compound-treated Brassica oleracea leaves at 1000 ppm after 48 hr by leaf-disc method relative to control; format: functional
[2] = test system: Pieris brassicae; assay: Insecticidal activity against fasted third-instar larvae of Pieris brassicae infested in compound-treated Brassica oleracea leaves assessed as mortality at 1000 ppm after 6 days relative to control; format: functional; details: 144 h

CCCCCCCCC/C=C\CCC[C@@H](O)[C@@H](O)[C@H](CO[C@@H]1O[C@H](CO)[C@@H](O)[C@H](O)[C@H]1O)NC(=O)[C@H](O)CCCCCCCCCCCCCCCCCCCCCC
Activity [1]: 62% | mortality at 1000 ppm [2]: 50%

CCCCCCCCC/C=C/CCC[C@@H](O)[C@@H](O)[C@H](CO)NC(=O)[C@H](O)CCCCCCCCCCCCCCCCCCCCCC
Activity [1]: 3% | mortality at 1000 ppm [2]: 0%

CCCCCCCCCCCCC/C=C/[C@@H](O)[C@H](CO)NC(=O)[C@H](O)CCCCCCCCCCCCCCCCCCCCCC
Activity [1]: 0% | mortality at 1000 ppm [2]: 0%

C/C=C(\C)C(=O)O[C@H]1C[C@@H](OC(C)=O)[C@@]2(C(=O)OC)CO[C@H]3[C@@H](O)[C@@](C)([C@]45O[C@@]4(C)[C@@H]4C[C@H]5O[C@@H]5OC=C[C@@]54O)[C@H]4[C@]1(CO[C@]4(O)C(=O)OC)[C@@H]32 [AZADIRACHTIN A]
Activity [1]: 99.5% | mortality at 1000 ppm [2]: 100%

C=C1[C@@H]2[C@@H](OC(=O)C=C[C@@]2(C)[C@H]2CC(=O)OC2(C)C)[C@H](OC(C)=O)[C@@]2(C)[C@H](C3=CCN(C(=O)CCNN)C3=O)C[C@H]3O[C@]132 [MUNRONIAMIDE]
Activity [1]: 27.6% | mortality at 1000 ppm [2]: 10%
